# Activity calls are given as the source filed them. No cut-off for these calls is given here.
# Tests used:
# HCT-116 [1] = assay: Cytotoxicity against human HCT116 cells assessed as reduction in cell viability after 48 hrs by MTT assay; assay type: functional, cell-based; settings: HCT-116, 48 h
# HCT-15 = assay: Cytotoxicity against human HCT15 cells assessed as reduction in cell viability after 48 hrs by MTT assay; assay type: functional, cell-based; settings: HCT-15, 48 h
# Aurora kinase A = target: T1, Aurora kinase A (Homo sapiens, UniProt O14965); assay: Inhibition of recombinant Aurora A (unknown origin) using TAMRA-PKAtide as substrate after 30 mins by fluorescence polarization assay
# T1 sequence (O14965 whole entry): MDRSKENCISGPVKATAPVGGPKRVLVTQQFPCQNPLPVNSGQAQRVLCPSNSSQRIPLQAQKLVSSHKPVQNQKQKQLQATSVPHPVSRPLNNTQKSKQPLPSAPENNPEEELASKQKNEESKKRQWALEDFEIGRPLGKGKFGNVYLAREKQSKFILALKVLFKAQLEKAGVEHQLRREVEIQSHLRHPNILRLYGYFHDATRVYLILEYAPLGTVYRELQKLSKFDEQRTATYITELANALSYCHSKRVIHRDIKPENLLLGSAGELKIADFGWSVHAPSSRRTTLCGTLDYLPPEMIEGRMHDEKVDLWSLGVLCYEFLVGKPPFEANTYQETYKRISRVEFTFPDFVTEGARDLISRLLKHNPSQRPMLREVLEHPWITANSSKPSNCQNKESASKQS
# Aurora kinase B [2] = target: T2, Aurora kinase B (Homo sapiens, UniProt Q96GD4); assay: Inhibition of recombinant Aurora B (unknown origin) using TAMRA-PKAtide as substrate after 1 hr by fluorescence polarization assay
# HCT-116 [3] = assay: Induction of apoptosis in human HCT116 cells at 100 nM after 72 hrs by Annexin V-FITC staining-based flow cytometric analysis; assay type: functional, cell-based
# HCT-116 [4] = assay: Inhibition of cytokinesis in human HCT116 cells at 100 nM after 24 hrs by propidium iodide/RNase staining-based flow cytometric analysis; assay type: functional, cell-based
# HCT-116 [5] = assay: Induction of apoptosis in human HCT116 cells at 1 uM after 72 hrs by Annexin V-FITC/propidium iodide staining-based flow cytometric analysis; assay type: functional, cell-based
# HCT-116 [6] = assay: Inhibition of cytokinesis in human HCT116 cells at 1 uM after 24 hrs by propidium iodide/RNase staining-based flow cytometric analysis; assay type: functional, cell-based
# Aurora kinase B [7] = target: T2, Aurora kinase B; assay: Inhibition of Aurora B phosphorylation at Thr232 residue in human HCT116 cells over 100 nM after 3 hrs by Western blot method; assay type: cell-based
# [8] = Solubility of the compound in phosphate buffer of pH 7.4 after 24 hrs by RP-HPLC analysis; assay type: physicochemical; settings: phosphate buffer, pH 7.4
# [9] = Solubility of the compound in phosphate buffer of pH 2 after 24 hrs by RP-HPLC analysis; assay type: physicochemical
# [10] = target: Tyrosine-protein kinase receptor UFO (Homo sapiens) (UniProt P30530); assay: Inhibition of AXL (unknown origin) at 1 uM
# [11] = target: Vascular endothelial growth factor receptor 2 (Homo sapiens) (UniProt P35968); assay: Inhibition of VEGFR2 (unknown origin) at 1 uM
# [12] = target: Proto-oncogene tyrosine-protein kinase Src (Homo sapiens) (UniProt P12931); assay: Inhibition of c-Src (unknown origin) at 1 uM
# [13] = target: Tyrosine-protein kinase ABL1 (Homo sapiens) (UniProt P00519); assay: Inhibition of ABL (unknown origin) at 1 uM
# [14] = target: Tyrosine-protein kinase JAK3 (Homo sapiens) (UniProt P52333); assay: Inhibition of JAK3 (unknown origin) at 1 uM
# [15] = target: Proto-oncogene tyrosine-protein kinase receptor Ret (Homo sapiens) (UniProt P07949); assay: Inhibition of RET (unknown origin) at 1 uM
# [16] = target: Serine/threonine-protein kinase PAK 4 (Homo sapiens) (UniProt O96013); assay: Inhibition of PAK4 (unknown origin) at 1 uM
# [17] = target: High affinity nerve growth factor receptor (Homo sapiens) (UniProt P04629); assay: Inhibition of TrkA (unknown origin) at 1 uM
# [18] = target: Platelet-derived growth factor receptor beta (Homo sapiens) (UniProt P09619); assay: Inhibition of PDGFRbeta (unknown origin) at 1 uM
# [19] = target: Epithelial discoidin domain-containing receptor 1 (Homo sapiens) (UniProt Q08345); assay: Inhibition of DDR1 (unknown origin) at 1 uM
# [20] = target: Fibroblast growth factor receptor 3 (Homo sapiens) (UniProt P22607); assay: Inhibition of FGFR3 (unknown origin) at 1 uM
# [21] = target: Mast/stem cell growth factor receptor Kit (Homo sapiens) (UniProt P10721); assay: Inhibition of c-KIT (unknown origin) at 1 uM
# [22] = target: Serine/threonine-protein kinase Chk1 (Homo sapiens) (UniProt O14757); assay: Inhibition of CHK1 (unknown origin) at 1 uM
# [23] = target: Receptor-type tyrosine-protein kinase FLT3 (Homo sapiens) (UniProt P36888); assay: Inhibition of FLT3 (unknown origin) at 1 uM
# [24] = target: Serine/threonine-protein kinase B-raf (Homo sapiens) (UniProt P15056); assay: Inhibition of BRAF (unknown origin) at 1 uM
# [25] = target: Hepatocyte growth factor receptor (Homo sapiens) (UniProt P08581); assay: Inhibition of c-MET (unknown origin) at 1 uM
# [26] = target: Cyclin-dependent kinase 4/cyclin D1 (Homo sapiens) (UniProt P11802+P24385); assay: Inhibition of CDK4/Cyclin D1 (unknown origin) at 1 uM; assay type: protein-complex assay
# [27] = target: Angiopoietin-1 receptor (Homo sapiens) (UniProt Q02763); assay: Inhibition of TIE2 (unknown origin) at 1 uM
# [28] = target: Serine/threonine-protein kinase pim-1 (Homo sapiens) (UniProt P11309); assay: Inhibition of PIM1 (unknown origin) at 1 uM
# [29] = target: CDK2/Cyclin A2 (Homo sapiens) (UniProt P24941+P20248); assay: Inhibition of CDK2/cyclin A (unknown origin) at 1 uM; assay type: protein-complex assay
# [30] = target: Insulin receptor (Homo sapiens) (UniProt P06213); assay: Inhibition of INSR (unknown origin) at 1 uM
# [31] = target: Serine/threonine-protein kinase PAK 1 (Homo sapiens) (UniProt Q13153); assay: Inhibition of PAK1 (unknown origin) at 1 uM
# [32] = target: Protein kinase C alpha type (Homo sapiens) (UniProt P17252); assay: Inhibition of PKCalpha (unknown origin) at 1 uM
# [33] = target: Tyrosine-protein kinase CSK (Homo sapiens) (UniProt P41240); assay: Inhibition of CSK (unknown origin) at 1 uM
# [34] = target: Tyrosine-protein kinase SYK (Homo sapiens) (UniProt P43405); assay: Inhibition of SYK (unknown origin) at 1 uM
# [35] = target: Inhibitor of nuclear factor kappa-B kinase subunit beta (Homo sapiens) (UniProt O14920); assay: Inhibition of IKKbeta (unknown origin) at 1 uM
# [36] = target: Interleukin-1 receptor-associated kinase 4 (Homo sapiens) (UniProt Q9NWZ3); assay: Inhibition of IRAK4 (unknown origin) at 1 uM
# [37] = target: Death-associated protein kinase 3 (Homo sapiens) (UniProt O43293); assay: Inhibition of ZIPK (unknown origin) at 1 uM
# [38] = target: Mitogen-activated protein kinase 3 (Homo sapiens) (UniProt P27361); assay: Inhibition of ERK1 (unknown origin) at 1 uM
# [39] = target: Rho-associated protein kinase 2 (Homo sapiens) (UniProt O75116); assay: Inhibition of ROCK2 (unknown origin) at 1 uM
# [40] = target: Serine/threonine-protein kinase mTOR (Homo sapiens) (UniProt P42345); assay: Inhibition of mTOR (unknown origin) at 1 uM
# T2 sequence (Q96GD4 whole entry): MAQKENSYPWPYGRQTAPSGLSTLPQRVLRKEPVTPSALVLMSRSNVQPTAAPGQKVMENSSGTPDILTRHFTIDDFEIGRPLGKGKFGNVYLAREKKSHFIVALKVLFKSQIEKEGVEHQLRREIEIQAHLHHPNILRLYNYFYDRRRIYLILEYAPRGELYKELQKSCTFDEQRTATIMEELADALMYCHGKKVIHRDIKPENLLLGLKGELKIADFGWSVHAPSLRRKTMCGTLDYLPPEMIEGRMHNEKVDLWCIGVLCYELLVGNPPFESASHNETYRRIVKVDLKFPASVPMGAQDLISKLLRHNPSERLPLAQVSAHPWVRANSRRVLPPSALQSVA
# Chain of Tyrosine-protein kinase receptor UFO (Homo sapiens) (P30530 whole entry): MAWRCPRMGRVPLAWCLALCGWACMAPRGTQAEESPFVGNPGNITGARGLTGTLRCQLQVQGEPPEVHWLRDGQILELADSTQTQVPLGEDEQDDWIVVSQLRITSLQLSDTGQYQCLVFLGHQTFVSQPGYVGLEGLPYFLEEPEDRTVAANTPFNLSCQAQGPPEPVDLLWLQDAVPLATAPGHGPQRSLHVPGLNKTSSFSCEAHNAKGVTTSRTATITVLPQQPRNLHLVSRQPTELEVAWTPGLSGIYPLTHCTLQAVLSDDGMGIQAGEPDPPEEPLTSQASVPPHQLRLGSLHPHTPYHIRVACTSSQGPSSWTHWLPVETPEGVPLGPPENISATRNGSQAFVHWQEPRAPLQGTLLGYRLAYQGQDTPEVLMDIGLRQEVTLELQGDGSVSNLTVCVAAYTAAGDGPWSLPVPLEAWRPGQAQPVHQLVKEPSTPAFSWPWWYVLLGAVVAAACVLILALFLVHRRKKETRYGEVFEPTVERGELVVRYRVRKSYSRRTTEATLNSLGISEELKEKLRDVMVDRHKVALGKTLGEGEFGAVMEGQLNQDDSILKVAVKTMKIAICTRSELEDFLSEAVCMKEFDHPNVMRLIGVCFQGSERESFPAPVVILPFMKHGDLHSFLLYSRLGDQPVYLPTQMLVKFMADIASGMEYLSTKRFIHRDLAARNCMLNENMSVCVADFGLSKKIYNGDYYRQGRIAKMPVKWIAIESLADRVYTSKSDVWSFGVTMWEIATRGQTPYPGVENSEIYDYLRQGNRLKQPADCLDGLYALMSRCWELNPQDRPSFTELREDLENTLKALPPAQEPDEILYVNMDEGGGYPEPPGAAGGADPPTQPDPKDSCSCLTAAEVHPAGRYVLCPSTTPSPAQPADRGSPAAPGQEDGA
# Chain of Serine/threonine-protein kinase PAK 1 (Homo sapiens) (Q13153 whole entry): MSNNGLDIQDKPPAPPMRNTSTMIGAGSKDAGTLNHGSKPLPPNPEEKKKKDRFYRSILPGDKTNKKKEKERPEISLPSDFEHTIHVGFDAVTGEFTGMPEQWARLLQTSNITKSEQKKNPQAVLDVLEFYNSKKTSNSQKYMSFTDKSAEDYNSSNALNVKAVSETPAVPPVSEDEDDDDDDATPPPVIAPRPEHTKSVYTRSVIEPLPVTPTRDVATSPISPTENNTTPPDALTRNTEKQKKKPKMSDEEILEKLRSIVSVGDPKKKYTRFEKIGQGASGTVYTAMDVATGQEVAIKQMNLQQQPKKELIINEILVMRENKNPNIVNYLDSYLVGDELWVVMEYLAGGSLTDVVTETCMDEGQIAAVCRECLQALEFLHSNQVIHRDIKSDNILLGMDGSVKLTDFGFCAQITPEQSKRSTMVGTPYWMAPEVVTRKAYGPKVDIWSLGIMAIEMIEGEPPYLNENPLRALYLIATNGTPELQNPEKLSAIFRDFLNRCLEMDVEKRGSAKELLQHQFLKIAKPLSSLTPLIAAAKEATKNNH
# Chain of Receptor-type tyrosine-protein kinase FLT3 (Homo sapiens) (P36888 whole entry): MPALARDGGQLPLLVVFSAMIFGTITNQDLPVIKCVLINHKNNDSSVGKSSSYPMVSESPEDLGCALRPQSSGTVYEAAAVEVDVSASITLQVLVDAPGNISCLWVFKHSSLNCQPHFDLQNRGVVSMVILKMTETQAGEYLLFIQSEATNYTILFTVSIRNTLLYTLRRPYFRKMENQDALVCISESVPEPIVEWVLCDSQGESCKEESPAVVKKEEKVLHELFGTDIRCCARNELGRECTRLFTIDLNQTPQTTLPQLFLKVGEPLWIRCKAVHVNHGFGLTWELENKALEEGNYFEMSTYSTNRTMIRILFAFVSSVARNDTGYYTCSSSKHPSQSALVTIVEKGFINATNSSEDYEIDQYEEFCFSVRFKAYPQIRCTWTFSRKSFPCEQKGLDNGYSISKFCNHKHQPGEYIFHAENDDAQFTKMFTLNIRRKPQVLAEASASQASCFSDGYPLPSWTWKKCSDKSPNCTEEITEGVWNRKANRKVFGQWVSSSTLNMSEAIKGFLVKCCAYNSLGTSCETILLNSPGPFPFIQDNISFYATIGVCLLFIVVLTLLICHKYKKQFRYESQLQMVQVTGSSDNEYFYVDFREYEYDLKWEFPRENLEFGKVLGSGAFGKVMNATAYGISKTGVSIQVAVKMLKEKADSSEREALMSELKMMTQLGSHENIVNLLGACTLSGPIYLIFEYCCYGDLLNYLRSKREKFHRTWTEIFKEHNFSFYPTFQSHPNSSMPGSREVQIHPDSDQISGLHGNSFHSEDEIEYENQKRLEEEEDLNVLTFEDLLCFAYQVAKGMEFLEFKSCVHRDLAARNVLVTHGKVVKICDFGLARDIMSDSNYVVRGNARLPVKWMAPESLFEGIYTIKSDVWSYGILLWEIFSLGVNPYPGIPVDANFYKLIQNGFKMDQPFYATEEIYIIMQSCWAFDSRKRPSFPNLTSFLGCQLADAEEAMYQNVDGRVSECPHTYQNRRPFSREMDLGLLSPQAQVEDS
# Chain of Proto-oncogene tyrosine-protein kinase Src (Homo sapiens) (P12931 2-536 limits assumed): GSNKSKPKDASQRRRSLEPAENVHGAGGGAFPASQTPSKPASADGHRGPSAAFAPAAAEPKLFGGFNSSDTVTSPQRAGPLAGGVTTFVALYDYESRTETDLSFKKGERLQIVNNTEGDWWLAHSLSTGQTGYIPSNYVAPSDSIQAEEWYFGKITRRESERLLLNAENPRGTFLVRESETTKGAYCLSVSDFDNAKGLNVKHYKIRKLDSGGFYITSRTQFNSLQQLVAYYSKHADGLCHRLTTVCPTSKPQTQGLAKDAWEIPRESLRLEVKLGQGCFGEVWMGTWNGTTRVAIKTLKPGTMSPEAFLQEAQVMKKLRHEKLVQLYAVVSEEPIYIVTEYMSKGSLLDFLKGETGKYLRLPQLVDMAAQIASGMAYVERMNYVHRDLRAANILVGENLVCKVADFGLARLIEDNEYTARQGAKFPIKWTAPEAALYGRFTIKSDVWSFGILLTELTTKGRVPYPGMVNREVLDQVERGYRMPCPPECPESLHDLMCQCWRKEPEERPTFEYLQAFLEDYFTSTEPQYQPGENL
# Chain of Death-associated protein kinase 3 (Homo sapiens) (O43293 whole entry, looked up): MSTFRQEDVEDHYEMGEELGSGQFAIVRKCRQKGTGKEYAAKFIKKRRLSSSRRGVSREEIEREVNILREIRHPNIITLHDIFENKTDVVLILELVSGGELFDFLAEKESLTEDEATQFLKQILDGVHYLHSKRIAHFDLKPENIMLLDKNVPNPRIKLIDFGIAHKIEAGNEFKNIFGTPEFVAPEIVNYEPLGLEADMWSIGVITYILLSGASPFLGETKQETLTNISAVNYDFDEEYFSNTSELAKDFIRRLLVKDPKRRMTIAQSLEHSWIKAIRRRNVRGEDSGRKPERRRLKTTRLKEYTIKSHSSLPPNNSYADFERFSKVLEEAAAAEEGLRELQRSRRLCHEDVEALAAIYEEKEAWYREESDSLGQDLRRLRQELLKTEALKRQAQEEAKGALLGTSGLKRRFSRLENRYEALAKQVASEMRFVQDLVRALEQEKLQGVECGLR
# Chain of Serine/threonine-protein kinase PAK 4 (Homo sapiens) (O96013 whole entry, looked up): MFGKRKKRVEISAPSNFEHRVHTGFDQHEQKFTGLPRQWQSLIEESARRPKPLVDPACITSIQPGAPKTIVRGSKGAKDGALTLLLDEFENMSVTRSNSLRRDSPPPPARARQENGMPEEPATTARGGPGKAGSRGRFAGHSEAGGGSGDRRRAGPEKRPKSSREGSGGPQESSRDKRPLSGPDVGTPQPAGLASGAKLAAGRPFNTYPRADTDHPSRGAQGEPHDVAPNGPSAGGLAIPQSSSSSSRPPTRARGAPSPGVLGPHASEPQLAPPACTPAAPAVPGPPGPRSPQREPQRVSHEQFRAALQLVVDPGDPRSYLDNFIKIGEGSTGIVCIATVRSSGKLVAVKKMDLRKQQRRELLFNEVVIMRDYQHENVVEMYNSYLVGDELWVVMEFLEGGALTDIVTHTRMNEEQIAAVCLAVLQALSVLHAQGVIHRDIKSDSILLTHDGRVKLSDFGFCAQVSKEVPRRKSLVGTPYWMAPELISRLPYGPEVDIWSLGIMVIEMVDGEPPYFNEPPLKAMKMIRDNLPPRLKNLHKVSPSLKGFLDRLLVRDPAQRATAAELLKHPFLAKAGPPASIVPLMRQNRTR
# Chain of Tyrosine-protein kinase CSK (Homo sapiens) (P41240 2-450 limits assumed): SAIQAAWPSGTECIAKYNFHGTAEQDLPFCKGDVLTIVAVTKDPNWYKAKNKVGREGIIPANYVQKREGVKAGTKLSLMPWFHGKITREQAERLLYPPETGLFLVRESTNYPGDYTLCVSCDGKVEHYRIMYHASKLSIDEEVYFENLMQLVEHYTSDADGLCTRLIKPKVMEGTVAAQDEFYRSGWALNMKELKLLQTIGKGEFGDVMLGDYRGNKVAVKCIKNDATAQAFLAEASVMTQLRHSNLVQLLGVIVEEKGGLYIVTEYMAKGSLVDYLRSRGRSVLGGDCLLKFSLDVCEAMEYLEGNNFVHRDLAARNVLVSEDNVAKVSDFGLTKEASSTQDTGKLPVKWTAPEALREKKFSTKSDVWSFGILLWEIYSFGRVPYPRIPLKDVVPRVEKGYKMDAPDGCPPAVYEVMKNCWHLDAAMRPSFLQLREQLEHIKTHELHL
structure (smiles),measurement,setting,value
CNC(=O)Nc1sc2c(C(C)C)cc(NS(=O)(=O)N(C)C)cc2c1C(N)=O,IC50,HCT-116 [1],300 nM
same,IC50,HCT-15,1600 nM
same,IC50,Aurora kinase A,9 nM
same,IC50,Aurora kinase B [2],23 nM
same,Activity,HCT-116 [3],inactive
same,Cytokinesis inhibition (active/inactive call),HCT-116 [4],Active
same,Activity,HCT-116 [5],inactive
same,Cytokinesis inhibition (active/inactive call),HCT-116 [6],Active
same,inhibition,Aurora kinase B [7],Active
same,solubility at 24 h,[8],13.1 µM
same,solubility at 24 h,[9],8 µM
same,inhibition,[10],37.2%
same,inhibition,[11],68.2%
same,inhibition,[12],94.4%
same,inhibition,[13],88.8%
same,inhibition,[14],54.6%
same,inhibition,[15],97.2%
same,inhibition,[16],11.2%
same,inhibition,[17],46.9%
same,inhibition,[18],61.3%
same,inhibition,[19],75.9%
same,inhibition,[20],14.4%
same,inhibition,[21],28.9%
same,inhibition,[22],16.4%
same,inhibition,[23],46.6%
same,inhibition,[24],-0.3%
same,inhibition,[25],2.76%
same,inhibition,[26],27%
same,inhibition,[27],0.75%
same,inhibition,[28],41.6%
same,inhibition,[29],22.8%
same,inhibition,[30],3%
same,inhibition,[31],5.28%
same,inhibition,[32],17.9%
same,inhibition,[33],19.5%
same,inhibition,[34],51.1%
same,inhibition,[35],30.7%
same,inhibition,[36],8.14%
same,inhibition,[37],39.6%
same,inhibition,[38],17.6%
same,inhibition,[39],15.7%
same,inhibition,[40],3.66%
